In patent US12624044B2, “SMARCA degraders and uses thereof” (Kymera Therapeutics, Inc., priority 2019, dated 2026):

Molecular target: SMARCA2 (Homo sapiens, UniProt P51531)
Assay: MSD SMARCA2 degradation in NCI-H1299 cell line (24 h)
Type: cell-based
Set-up: HC: NCI-H1299 cells treated with DMSO; host or cells: NCI-H1299
Settings: for Dmax: NCI-H1299, NCI-H1299 cells; for DC50: NCI-H1299 cells, read-out: SMARCA2 MSD H1299 degradation 24 h: External Abs-DC50
Method: Example 32. MSD SMARCA2 Degradation in […] Cell Line
Cell Culture: Cells were cultured in exponential growth phase.
Compound Preparation and Treatment: NCI-H1299 cells were seeded into the 96-well plate at 4.0*10^4 cells per 100 ul per well. Incubate the plate in the incubator overnight. The next day, compounds were diluted to designed stock concentration by TECAN, then perform a 3 fold, 9-point dilution via transferring 15 uL compound into 30 μL DMSO using Apricot. 200 nL diluted compound from compound source plate were transferred into the 96-intermediate plate as designated by using Echo550, followed with 100 ul culture medium to make the 2× compound solution. Cell plate were changed with 80 ul of fresh culture medium and 80 ul of 2× compound solution was added into the well to achieve the final designed concentration. Cell plate was then shaken at 720 rpm for 5 min and incubated for 24 hours in the incubator.
Sample Preparation: Media was aspirated from the cultures and the plate was washed with PBS twice. 60 ul of pre-chilled PIPA lysis buffer (Boston BioProducts BP-115D) with protease inhibitor were directly added into the well to lyze the cells for 20 minutes at 4° C. Cell lysates were collected.
MSD Procedure: The MSD plate was coated with 40 ul cell lysate and incubated at 4° C. overnight. The next day, the MSD coated bare plate was washed 3 times with 150 ul 1×TBST per well, blocked with 150 ul of blocking buffer per well, and shaken for 1 hour at RT, 600 rpm. Blocking buffer was 3% Blocker A in TBST. MSD plate was then washed 3 times with 150 ul 1×TBST per well and Primary Detection antibody (Rabbit anti-SMARCA2/BRM antibody, 100 μg/ml, ab223735) was added to a final [conc.]: 0.3 ug/ml, 25 ul/well and shaken for 1 hour at RT, 600 rpm. Antibody was prepared in Antibody Detection buffer (1% Blocker A in 1×TBST). The MSD plate was then washed 3 times with 150 ul 1×TBST per well. Secondary Detection antibody (SULFO-TAG anti-species antibody) was then added to a final [conc.]: 1 ug/ml, 25 ul/well, and shaken for 1 hour at RT, 600 rpm. Antibodies were prepared in Antibody Detection buffer (1% Blocker A in 1×TBST). MSD plate was washed 3 times with 150 ul 1×TBST per well and 2×MSD reading buffer was added, 150 ul per well, and diluted from 4× with water. MSD instrument was then read.
Data Analysis: The percentage of relative level of SMARCA2 level was calculated following equation below.
LC: A2780, SMARCA2 negative cells. HC: NCI-H1299 cells treated with DMSO.
The letter codes for the percentage of SMARCA2 degradation after 24 hours (Dmax %) include: A (>90% degradation), B (>70-90 degradation), C (50-70 degradation), and D (<50% degradation).

Chain of SMARCA2 (P51531 whole entry): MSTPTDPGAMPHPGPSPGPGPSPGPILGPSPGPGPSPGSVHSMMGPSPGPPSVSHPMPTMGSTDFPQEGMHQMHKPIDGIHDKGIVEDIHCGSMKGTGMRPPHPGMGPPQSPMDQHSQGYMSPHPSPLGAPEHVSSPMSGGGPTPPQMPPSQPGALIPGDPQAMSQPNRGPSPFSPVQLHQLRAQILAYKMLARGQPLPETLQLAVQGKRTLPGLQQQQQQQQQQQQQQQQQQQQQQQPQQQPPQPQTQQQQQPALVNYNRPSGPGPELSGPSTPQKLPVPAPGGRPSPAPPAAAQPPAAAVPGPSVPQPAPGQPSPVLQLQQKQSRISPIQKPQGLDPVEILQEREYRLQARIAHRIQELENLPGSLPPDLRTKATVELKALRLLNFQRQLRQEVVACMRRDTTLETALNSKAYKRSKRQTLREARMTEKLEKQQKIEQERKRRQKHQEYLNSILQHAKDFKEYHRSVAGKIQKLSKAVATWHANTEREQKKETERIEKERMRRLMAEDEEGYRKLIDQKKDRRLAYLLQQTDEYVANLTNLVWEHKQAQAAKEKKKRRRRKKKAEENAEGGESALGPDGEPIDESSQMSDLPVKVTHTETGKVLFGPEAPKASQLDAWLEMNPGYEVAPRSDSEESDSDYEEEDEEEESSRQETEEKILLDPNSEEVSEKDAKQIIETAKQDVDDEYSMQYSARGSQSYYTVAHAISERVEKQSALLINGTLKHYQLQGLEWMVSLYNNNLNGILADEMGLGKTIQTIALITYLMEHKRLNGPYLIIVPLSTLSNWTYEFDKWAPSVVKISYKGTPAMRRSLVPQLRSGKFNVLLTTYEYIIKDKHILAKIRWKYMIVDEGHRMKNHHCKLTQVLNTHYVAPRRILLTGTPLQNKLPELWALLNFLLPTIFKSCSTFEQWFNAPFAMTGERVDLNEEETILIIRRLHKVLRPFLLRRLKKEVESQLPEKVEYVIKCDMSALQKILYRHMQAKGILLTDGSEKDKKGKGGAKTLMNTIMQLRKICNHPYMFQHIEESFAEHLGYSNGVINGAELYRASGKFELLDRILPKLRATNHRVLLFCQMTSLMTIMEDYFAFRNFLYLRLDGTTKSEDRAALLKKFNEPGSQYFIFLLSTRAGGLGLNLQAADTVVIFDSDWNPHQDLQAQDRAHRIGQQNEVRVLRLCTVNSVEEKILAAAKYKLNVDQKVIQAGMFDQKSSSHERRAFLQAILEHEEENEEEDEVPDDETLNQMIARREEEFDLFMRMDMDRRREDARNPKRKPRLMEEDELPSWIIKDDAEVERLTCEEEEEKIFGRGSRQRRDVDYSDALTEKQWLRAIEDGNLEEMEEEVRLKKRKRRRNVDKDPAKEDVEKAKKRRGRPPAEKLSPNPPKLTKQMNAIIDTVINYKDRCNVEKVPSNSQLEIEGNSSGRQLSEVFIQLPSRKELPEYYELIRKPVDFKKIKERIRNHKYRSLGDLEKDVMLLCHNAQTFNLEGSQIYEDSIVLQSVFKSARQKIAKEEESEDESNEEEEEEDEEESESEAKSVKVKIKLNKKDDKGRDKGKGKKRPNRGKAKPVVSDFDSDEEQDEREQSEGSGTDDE

Dmax	DC50	Compound
> 90%	< 100 nM	Cn1c(=O)n(C2CCC(=O)NC2=O)c2ccc(CCCCCCCCCN3CCC(Cn4cc(-c5cc(-c6ccccc6O)nnc5N)cn4)CC3)cc21 (stereo not drawn) [I-148]
	> 1000 nM	O=C(CCCCCCCCOc1ccc(N2C[C@H]3C[C@@H]2CN3/C=C/C(=O)c2ccccc2O)nc1)NCCOCCOCCOCCOCCOCCNc1cccc2c1C(=O)N(C1CCC(=O)NC1=O)C2=O (stereo partly drawn) [I-3]
50 to 70%	100 to 500 nM	Cn1c(=O)n(C2CCC(=O)NC2=O)c2ccc(CCCCN3CCC[C@@H](Cn4cc(-c5cc(-c6ccccc6O)nnc5N)cn4)C3)cc21 (stereo partly drawn) [I-192]
50 to 70%	< 100 nM	CN(Cc1ccc(N2CCN(c3cc(-c4ccccc4O)nnc3N)CC2)cc1)CC1CCN(c2ccc3c(c2)n(C)c(=O)n3C2CCC(=O)NC2=O)CC1 (stereo not drawn) [I-114]
< 50%	> 1000 nM	Cn1c(=O)n(C2CCC(=O)NC2=O)c2ccc(C#CCCCCCCc3cn(Cc4cccc(N5C[C@H]6C[C@@H]5CN6/C=C/C(=O)c5ccccc5O)n4)nn3)cc21 (stereo partly drawn) [I-63]
50 to 70%	> 1000 nM	Nc1nnc(-c2ccccc2O)cc1N1CCN(c2ccc(CNCCCOCCCc3ccc4c(c3)oc(=O)n4C3CCC(=O)NC3=O)cc2)CC1 (stereo not drawn) [I-127]
< 50%	> 1000 nM	Cn1c(=O)n(C2CCC(=O)NC2=O)c2cccc(CCCCCc3cn(Cc4cccc(N5C[C@H]6C[C@@H]5CN6/C=C/C(=O)c5ccccc5O)n4)nn3)c21 (stereo partly drawn) [I-50]
	> 1000 nM	CN[C@@H](C)C(=O)N[C@H](C(=O)N1Cc2cc(OCCOCCOCCNC(=O)c3ccc(C(C)n4cc(-c5cc(-c6ccccc6O)nnc5N)cn4)cc3)ccc2C[C@H]1C(=O)N[C@@H]1CCCc2ccccc21)C(C)(C)C (stereo partly drawn) [I-209]
70 to 90%	< 100 nM	Cn1c(=O)n(C2CCC(=O)NC2=O)c2cccc(CCCCCN3CCCC(n4cc(-c5cc(-c6ccccc6O)nnc5N)cn4)C3)c21 (stereo not drawn) [I-170]
70 to 90%	< 100 nM	Cn1c(=O)n(C2CCC(=O)NC2=O)c2ccc(CCCN3CCCC(n4cc(-c5cc(-c6ccccc6O)nnc5N)cn4)C3)cc21 (stereo not drawn) [I-178]
< 50%	100 to 500 nM	Cn1c(=O)n(C2CCC(=O)NC2=O)c2ccc(COCCCN3CCN(Cc4ccc(-c5cc(-c6ccccc6O)nnc5N)cc4)CC3)cc21 (stereo not drawn) [I-141]
70 to 90%	< 100 nM	Cn1c(=O)n(C2CCC(=O)NC2=O)c2ccc(CCCCCN3CCC(n4cc(-c5cc(-c6ccccc6O)nnc5N)cn4)CC3)cc21 (stereo not drawn) [I-183]
	> 1000 nM	Cn1c(=O)n(C2CCC(=O)NC2=O)c2ccc(CCCOCCOCCOc3cccc(N4C[C@H]5C[C@@H]4CN5/C=C/C(=O)c4ccccc4O)n3)cc21 (stereo partly drawn) [I-33]
< 50%	> 1000 nM	Cn1c(=O)n(C2CCC(=O)NC2=O)c2ccc(CCCCCCCN3CCC(n4cc(-c5cc(-c6ccccc6O)nnc5N)cn4)CC3)cc21 (stereo not drawn) [I-184]
	> 1000 nM	O=C(CCCCCCCCOc1ccnc(N2C[C@H]3C[C@@H]2CN3/C=C/C(=O)c2ccccc2O)c1)NCCOCCOCCOCCNc1cccc2c1C(=O)N(C1CCC(=O)NC1=O)C2=O (stereo partly drawn) [I-17]
50 to 70%	< 100 nM	Cn1c(=O)n(C2CCC(=O)NC2=O)c2ccc(CCCN3CCN(Cc4ccc(-c5cc(-c6ccccc6O)nnc5N)cc4)CC3)cc21 (stereo not drawn) [I-139]
	> 1000 nM	CN[C@@H](C)C(=O)N[C@H](C(=O)N1Cc2cc(OCCOCCOCCOCCOCCOCCNC(=O)CCCCCCCCOc3ccnc(N4C[C@H]5C[C@@H]4CN5/C=C/C(=O)c4ccccc4O)c3)ccc2C[C@H]1C(=O)N[C@@H]1CCCc2ccccc21)C(C)(C)C [I-202]
< 50%	> 1000 nM	Cn1c(=O)n(C2CCC(=O)NC2=O)c2ccc(CNCCCCCCc3cn(Cc4cccc(N5C[C@H]6C[C@@H]5CN6/C=C/C(=O)c5ccccc5O)n4)nn3)cc21 (stereo partly drawn) [I-77]
50 to 70%	100 to 500 nM	Cn1c(=O)n(C2CCC(=O)NC2=O)c2cccc(CCCCOc3cccc(CN4CCN(c5cc(-c6ccccc6O)nnc5N)CC4)c3)c21 (stereo not drawn) [I-96]

Dmax	DC50	Compound
	> 1000 nM	CN[C@@H](C)C(=O)N[C@H](C(=O)N1Cc2cc(OCCOCCOCCOCCOCCOCCNC(=O)c3ccc(C(C)n4cc(-c5cc(-c6ccccc6O)nnc5N)cn4)cc3)ccc2C[C@H]1C(=O)N[C@@H]1CCCc2ccccc21)C(C)(C)C (stereo partly drawn) [I-206]
	> 1000 nM	CC(c1ccc(C(=O)NCCOCCOCCOCCOCCCc2ccc3c(c2)n(C)c(=O)n3C2CCC(=O)NC2=O)cc1)n1cc(-c2cc(-c3ccccc3O)nnc2N)cn1 (stereo not drawn) [I-13]
70 to 90%	100 to 500 nM	Cn1c(=O)n(C2CCC(=O)NC2=O)c2ccc(CN3CCC(OCCCN4CCN(Cc5ccc(-c6cc(-c7ccccc7O)nnc6N)cc5)CC4)CC3)cc21 (stereo not drawn) [I-158]
< 50%	> 1000 nM	Cn1c(=O)n(C2CCC(=O)NC2=O)c2cccc(CCCCOc3ccc(CN4CCN(c5cc(-c6ccccc6O)nnc5N)CC4)cc3)c21 (stereo not drawn) [I-91]
< 50%	> 1000 nM	CN1C(=O)CCC(n2c(=O)n(C)c3cc(CCCOCCCCN4CCN(Cc5ccc(-c6cc(-c7ccccc7O)nnc6N)cc5)CC4)ccc32)C1=O (stereo not drawn) [I-160]
	> 1000 nM	Cn1c(=O)n(C2CCC(=O)NC2=O)c2ccc(CCCOCCOCCOCCNC(=O)CCCCCCCCOc3ccnc(N4C[C@H]5C[C@@H]4CN5/C=C/C(=O)c4ccccc4O)c3)cc21 (stereo partly drawn) [I-20]
< 50%	> 1000 nM	Cn1c(=O)n(C2CCC(=O)NC2=O)c2cccc(CCCOCCOCCOCCN3CCN(Cc4ccc(-c5cc(-c6ccccc6O)nnc5N)cc4)CC3)c21 (stereo not drawn) [I-108]
< 50%	> 1000 nM	Cn1c(=O)n(C2CCC(=O)NC2=O)c2ccc(CCCOc3ccc(CN4CCN(c5cc(-c6ccccc6O)nnc5N)CC4)cc3)cc21 (stereo not drawn) [I-83, 3-(5-(3-(4-((4-(3-amino-6-(2-hydroxyphenyl)pyridazin-4-yl)piperazin-1-yl)methyl)phenoxy)propyl)-3-methyl-2-oxo-2,3-dihydro-1H-benzo[d]imidazol-1-yl)piperidine-2,6-dione]
< 50%	> 1000 nM	Cn1c(=O)n(C2CCC(=O)NC2=O)c2ccc(CN3CCC(n4cc(-c5cc(-c6ccccc6O)nnc5N)cn4)CC3)cc21 (stereo not drawn) [I-181]
< 50%	> 1000 nM	Cn1c(=O)n(C2CCC(=O)NC2=O)c2ccc(CCCCCc3cn(Cc4cccc(N5C[C@H]6C[C@@H]5CN6/C=C/C(=O)c5ccccc5O)n4)nn3)cc21 (stereo partly drawn) [I-45]
50 to 70%	< 100 nM	Cn1c(=O)n(C2CCC(=O)NC2=O)c2ccc(CCCOCCCN3CCN(Cc4ccc(-c5cc(-c6ccccc6O)nnc5N)cc4)CC3)cc21 (stereo not drawn) [I-153]
< 50%	> 1000 nM	Cn1c(=O)n(C2CCC(=O)NC2=O)c2cccc(CCCOCCOCCOCCOCCN3CCN(Cc4ccc(-c5cc(-c6ccccc6O)nnc5N)cc4)CC3)c21 (stereo not drawn) [I-133]
	> 1000 nM	O=C(CCCCCCCCOc1ccc(N2C[C@H]3C[C@@H]2CN3/C=C/C(=O)c2ccccc2O)nc1)NCCOCCOCCOCCOCCNc1cccc2c1C(=O)N(C1CCC(=O)NC1=O)C2=O (stereo partly drawn) [I-2]
	> 1000 nM	Cc1ncsc1-c1ccc(CNC(=O)[C@@H]2C[C@@H](O)CN2C(=O)[C@@H](NC(=O)COCCOCCOCCNC(=O)CCCCCCCCOc2ccnc(N3C[C@H]4C[C@@H]3CN4/C=C/C(=O)c3ccccc3O)c2)C(C)(C)C)cc1 [I-220]
< 50%	> 1000 nM	Cn1c(=O)n(C2CCC(=O)NC2=O)c2ccc(CCCCCCOc3cccc(CN4CCN(c5cc(-c6ccccc6O)nnc5N)CC4)c3)cc21 (stereo not drawn) [I-103]
	> 1000 nM	CN[C@@H](C)C(=O)N[C@H](C(=O)N1Cc2cc(OCCOCCOCCOCCOCCNC(=O)CCCCCCCCOc3ccnc(N4C[C@H]5C[C@@H]4CN5/C=C/C(=O)c4ccccc4O)c3)ccc2C[C@H]1C(=O)N[C@@H]1CCCc2ccccc21)C(C)(C)C [I-203]
	> 1000 nM	O=C(CCCCCCCCOc1ccnc(N2C[C@H]3C[C@@H]2CN3/C=C/C(=O)c2ccccc2O)c1)NCCOCCOCCOCCOCCOCCNc1cccc2c1C(=O)N(C1CCC(=O)NC1=O)C2=O (stereo partly drawn) [I-19]
	> 1000 nM	O=C1CCC(N2C(=O)c3cccc(OCCOCCc4cn(Cc5cccc(N6C[C@H]7C[C@@H]6CN7/C=C/C(=O)c6ccccc6O)n5)nn4)c3C2=O)C(=O)N1 (stereo partly drawn) [I-39]
< 50%	> 1000 nM	Cn1c(=O)n(C2CCC(=O)NC2=O)c2cccc(C#CCCCCc3cn(Cc4cccc(N5C[C@H]6C[C@@H]5CN6/C=C/C(=O)c5ccccc5O)n4)nn3)c21 (stereo partly drawn) [I-66]
